Assay results published in ChEMBL document CHEMBL1148885, “Modeling assisted rational design of novel, potent, and selective pyrrolopyrimidine DPP-4 inhibitors” (Bioorg Med Chem Lett, 2007).

Experiments:
Dipeptidyl peptidase 8 = Dipeptidyl peptidase 8 (Homo sapiens, UniProt Q6V1X1); assay: Inhibition of DPP8
Dipeptidyl peptidase 2 = Dipeptidyl peptidase 2 (Homo sapiens, UniProt Q9UHL4); assay: Inhibition of QPP
Dipeptidyl peptidase 9 = Dipeptidyl peptidase 9 (Homo sapiens, UniProt Q86TI2)
Dipeptidyl peptidase 4 = Dipeptidyl peptidase 4 (Homo sapiens, UniProt P27487)
Chain of Dipeptidyl peptidase 4 (P27487 whole entry): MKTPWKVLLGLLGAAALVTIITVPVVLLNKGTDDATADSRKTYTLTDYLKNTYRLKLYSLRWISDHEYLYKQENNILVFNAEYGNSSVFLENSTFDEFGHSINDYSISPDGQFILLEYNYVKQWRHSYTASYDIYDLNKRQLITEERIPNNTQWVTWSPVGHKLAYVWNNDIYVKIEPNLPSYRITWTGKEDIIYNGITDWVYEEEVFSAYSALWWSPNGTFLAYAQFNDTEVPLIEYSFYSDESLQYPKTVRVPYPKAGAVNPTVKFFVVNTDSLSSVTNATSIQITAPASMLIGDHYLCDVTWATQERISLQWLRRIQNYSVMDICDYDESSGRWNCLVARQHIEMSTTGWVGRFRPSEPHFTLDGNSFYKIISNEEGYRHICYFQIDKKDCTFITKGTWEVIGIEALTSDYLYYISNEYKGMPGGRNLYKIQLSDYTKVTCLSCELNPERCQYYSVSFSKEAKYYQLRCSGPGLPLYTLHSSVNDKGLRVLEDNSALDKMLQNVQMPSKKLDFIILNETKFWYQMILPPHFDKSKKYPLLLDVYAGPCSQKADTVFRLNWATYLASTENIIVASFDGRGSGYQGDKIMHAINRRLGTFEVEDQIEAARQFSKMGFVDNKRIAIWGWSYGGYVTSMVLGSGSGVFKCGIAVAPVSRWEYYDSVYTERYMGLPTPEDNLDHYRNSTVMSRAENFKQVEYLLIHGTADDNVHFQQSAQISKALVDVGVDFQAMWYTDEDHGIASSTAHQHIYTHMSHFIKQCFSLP

Chain of Dipeptidyl peptidase 8 (Q6V1X1 whole entry): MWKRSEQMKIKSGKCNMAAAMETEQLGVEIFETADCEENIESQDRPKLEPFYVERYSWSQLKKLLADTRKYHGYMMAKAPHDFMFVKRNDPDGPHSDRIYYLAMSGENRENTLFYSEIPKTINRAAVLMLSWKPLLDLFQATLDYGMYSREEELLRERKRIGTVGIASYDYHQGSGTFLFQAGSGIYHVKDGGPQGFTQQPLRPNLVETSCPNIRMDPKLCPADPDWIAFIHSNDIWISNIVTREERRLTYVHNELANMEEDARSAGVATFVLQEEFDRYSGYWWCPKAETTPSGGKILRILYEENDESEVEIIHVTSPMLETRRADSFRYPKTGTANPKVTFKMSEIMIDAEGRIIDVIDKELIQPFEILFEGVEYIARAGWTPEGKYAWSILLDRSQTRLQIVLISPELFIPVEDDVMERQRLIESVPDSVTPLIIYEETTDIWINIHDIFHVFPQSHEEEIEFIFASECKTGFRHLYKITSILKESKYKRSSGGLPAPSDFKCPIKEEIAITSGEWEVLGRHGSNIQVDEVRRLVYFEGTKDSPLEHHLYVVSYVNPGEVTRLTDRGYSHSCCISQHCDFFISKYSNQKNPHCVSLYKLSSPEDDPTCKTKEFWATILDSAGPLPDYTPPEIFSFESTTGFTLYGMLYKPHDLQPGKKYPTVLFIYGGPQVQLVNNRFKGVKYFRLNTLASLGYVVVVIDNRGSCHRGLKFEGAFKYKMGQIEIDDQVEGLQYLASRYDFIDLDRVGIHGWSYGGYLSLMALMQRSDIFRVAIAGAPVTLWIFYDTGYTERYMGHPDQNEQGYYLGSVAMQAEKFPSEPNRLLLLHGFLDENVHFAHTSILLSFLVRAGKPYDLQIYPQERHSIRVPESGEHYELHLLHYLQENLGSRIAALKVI
Chain of Dipeptidyl peptidase 9 (Q86TI2 whole entry): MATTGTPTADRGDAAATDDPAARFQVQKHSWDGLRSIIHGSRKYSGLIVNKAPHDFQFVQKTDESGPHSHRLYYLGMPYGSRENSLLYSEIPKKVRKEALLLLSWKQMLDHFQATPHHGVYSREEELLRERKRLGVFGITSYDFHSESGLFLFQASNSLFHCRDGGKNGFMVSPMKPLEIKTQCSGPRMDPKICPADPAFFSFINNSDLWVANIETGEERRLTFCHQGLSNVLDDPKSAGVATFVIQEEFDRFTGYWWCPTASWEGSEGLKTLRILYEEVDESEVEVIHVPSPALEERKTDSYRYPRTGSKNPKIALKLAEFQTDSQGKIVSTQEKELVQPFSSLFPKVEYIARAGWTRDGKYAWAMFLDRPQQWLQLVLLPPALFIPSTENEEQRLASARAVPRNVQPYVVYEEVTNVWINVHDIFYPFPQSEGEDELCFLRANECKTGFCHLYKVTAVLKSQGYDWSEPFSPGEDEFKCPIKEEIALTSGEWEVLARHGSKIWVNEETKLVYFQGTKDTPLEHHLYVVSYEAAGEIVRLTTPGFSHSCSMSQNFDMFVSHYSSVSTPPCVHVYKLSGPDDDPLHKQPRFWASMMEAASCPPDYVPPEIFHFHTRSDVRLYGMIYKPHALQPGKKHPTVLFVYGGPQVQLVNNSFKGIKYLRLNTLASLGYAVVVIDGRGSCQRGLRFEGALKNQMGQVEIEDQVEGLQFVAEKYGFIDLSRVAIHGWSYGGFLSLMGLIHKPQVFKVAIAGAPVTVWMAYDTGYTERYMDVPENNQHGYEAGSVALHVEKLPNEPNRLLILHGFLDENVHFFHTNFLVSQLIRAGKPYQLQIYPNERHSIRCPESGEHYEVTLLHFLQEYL

SMILES | IC50 (Dipeptidyl peptidase 8) [µM] | IC50 (Dipeptidyl peptidase 2) [µM] | IC50 (Dipeptidyl peptidase 9) [µM] | IC50 (Dipeptidyl peptidase 4) [µM]
N[C@H]1C[C@@H](N2CCn3c(nnc3C(F)(F)F)C2)CC[C@@H]1c1cc(F)c(F)cc1F | > 100 | > 100 | > 100 | –
N[C@H]1C[C@@H](N2Cc3cnc(C4CC4)nc3C2)CC[C@@H]1c1cc(F)c(F)cc1F | – | 61 | – | 0.0053
N[C@H]1C[C@@H](N2Cc3ccccc3C2)CC[C@@H]1c1cc(F)c(F)cc1F | – | 68 | – | 0.0066
N[C@H]1C[C@@H](N2Cc3cncnc3C2)CC[C@@H]1c1cc(F)c(F)cc1F | – | > 100 | – | 0.00067
